Data taken from patent US20240384268A1, “Oligonucleotides” (Hudson Institute of Medical Research, priority 2021, published 2024).
In the oligonucleotide strings, read from the 5' end, every base follows the letter of its sugar. An asterisk marks phosphorothioate; unmarked linkages are phosphodiester. Other units and linkages are bracketed, terminal groups are in braces. A string of capitals states the bases alone. d = 2'-deoxy (DNA); m = 2'-O-methyl

What follows are substances tested against T1, human TLR7 (Homo sapiens, UniProt Q9NYK1) (assay: HEK-TLR7 NF-κB-luciferase reporter, R848 stimulation). Conditions: HEK-TLR7; 100 nM ASO; percentage of R848 without ASO (Alharbi et al., 2020).
T1 construct: HA; host or cells: 293XL-hTLR7-HA (HEK293)
T1 sequence (Q9NYK1 27-1049): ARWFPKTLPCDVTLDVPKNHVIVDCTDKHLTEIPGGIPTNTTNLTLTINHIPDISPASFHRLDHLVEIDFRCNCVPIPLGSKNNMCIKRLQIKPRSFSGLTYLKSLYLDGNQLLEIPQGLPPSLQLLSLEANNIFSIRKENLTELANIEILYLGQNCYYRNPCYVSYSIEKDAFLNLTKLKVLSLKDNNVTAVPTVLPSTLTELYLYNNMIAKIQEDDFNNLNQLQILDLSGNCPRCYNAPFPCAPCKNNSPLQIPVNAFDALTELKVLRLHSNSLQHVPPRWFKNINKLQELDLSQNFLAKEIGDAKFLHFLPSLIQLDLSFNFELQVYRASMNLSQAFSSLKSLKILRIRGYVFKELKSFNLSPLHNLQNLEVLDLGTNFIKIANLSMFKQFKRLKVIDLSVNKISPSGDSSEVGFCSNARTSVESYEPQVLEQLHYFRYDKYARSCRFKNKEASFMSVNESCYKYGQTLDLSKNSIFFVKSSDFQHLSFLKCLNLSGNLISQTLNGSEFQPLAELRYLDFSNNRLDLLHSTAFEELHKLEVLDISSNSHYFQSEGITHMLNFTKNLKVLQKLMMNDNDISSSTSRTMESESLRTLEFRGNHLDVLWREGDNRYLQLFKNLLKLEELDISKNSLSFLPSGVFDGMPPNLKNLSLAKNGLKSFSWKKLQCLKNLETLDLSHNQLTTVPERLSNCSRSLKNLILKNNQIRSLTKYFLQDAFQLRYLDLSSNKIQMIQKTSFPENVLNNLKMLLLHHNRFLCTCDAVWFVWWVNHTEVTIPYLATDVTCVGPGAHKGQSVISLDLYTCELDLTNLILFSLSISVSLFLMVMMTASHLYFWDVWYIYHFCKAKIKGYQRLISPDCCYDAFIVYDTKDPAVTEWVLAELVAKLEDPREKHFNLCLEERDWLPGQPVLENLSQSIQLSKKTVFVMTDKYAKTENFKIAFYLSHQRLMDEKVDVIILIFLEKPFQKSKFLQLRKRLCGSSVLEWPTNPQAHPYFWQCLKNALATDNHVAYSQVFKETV
Assay type: cell-based

| Substance | TLR7-100 nM: averaged NF-κB-Luciferase relative to R848 [%] |
| --- | --- |
| mA*mA*mG*mG*mU*G*G*C*C*A*C*A*G*G*C*mA*mA*mC*mG*mU (mA*mA*mG*mG*mU*dG*dG*dC*dC*dA*dC*dA*dG*dG*dC*mA*mA*mC*mG*mU; antisense) [[CDKN2B-AS1]2198] | 57.85 |
| mA*mA*mU*mA*mU*C*T*G*C*T*G*C*C*C*A*mC*mC*mU*mU*mC (mA*mA*mU*mA*mU*dC*dT*dG*dC*dT*dG*dC*dC*dC*dA*mC*mC*mU*mU*mC; antisense) [[CDKN2B-AS1]832] | 43.66 |
| mA*mA*mU*mU*mU*A*A*A*G*C*A*T*G*A*A*mU*mA*mU*mU*mA (mA*mA*mU*mU*mU*dA*dA*dA*dG*dC*dA*dT*dG*dA*dA*mU*mA*mU*mU*mA) [[CDKN2B-AS1]645] | 46.75 |
| mA*mC*mC*mC*mU*T*C*T*C*T*C*T*G*G*T*mC*mC*mC*mA*mU (mA*mC*mC*mC*mU*dT*dC*dT*dC*dT*dC*dT*dG*dG*dT*mC*mC*mC*mA*mU; antisense) [[LINC-PINT]115] | 43.37 |
| mA*mG*mA*mA*mA*G*A*A*G*C*A*A*A*G*A*mU*mU*mC*mA*mA (AGAAAGAAGCAAAGAUUCAA; sugars from the 5' end m5 d10 m5, all phosphorothioate, methylation of C not given here) [[CDKN2B-AS1]1519] | 42.99 |
| mA*mG*mA*mU*mU*A*T*C*T*T*C*T*T*T*T*mA*mA*mU*mU*mU (AGAUUATCTTCTTTTAAUUU; sugars from the 5' end m5 d10 m5, all phosphorothioate, methylation of C not given here) [[CDKN2B-AS1]2130] | 37.10 |
| mA*mG*mC*mC*mG*A*A*C*A*G*A*A*G*G*A*mG*mC*mG*mU*mC (AGCCGAACAGAAGGAGCGUC; sugars from the 5' end m5 d10 m5, all phosphorothioate, methylation of C not given here) [[LINC-PINT]587 KL] | 27.70 |
| mA*mG*mG*mA*mU*T*A*A*A*A*C*A*G*A*T*mU*mA*mA*mU*mA (mA*mG*mG*mA*mU*dT*dA*dA*dA*dA*dC*dA*dG*dA*dT*mU*mA*mA*mU*mA) [[CDKN2B-AS1] 1775] | 36.28 |
| mA*mG*mG*mC*mC*T*C*C*A*G*T*G*T*C*T*mU*mC*mU*mC*mC (mA*mG*mG*mC*mC*dT*dC*dC*dA*dG*dT*dG*dT*dC*dT*mU*mC*mU*mC*mC; antisense) [[CDKN2B-AS1]2218] | 44.73 |
| mA*mU*mA*mU*mC*T*G*C*T*G*C*C*C*A*C*mC*mU*mU*mC*mU (AUAUCTGCTGCCCACCUUCU; antisense; sugars from the 5' end m5 d10 m5, all phosphorothioate, methylation of C not given here) [[CDKN2B-AS1]831] | 47.52 |
| mA*mU*mG*mA*mC*A*T*T*T*C*G*T*G*G*C*mU*mC*mC*mU*mA (mA*mU*mG*mA*mC*dA*dT*dT*dT*dC*dG*dT*dG*dG*dC*mU*mC*mC*mU*mA) [[LINC-PINT]524.1] | 32.53 |
| mC*mA*mA*mG*mC*C*C*C*A*G*C*G*T*T*C*mC*mU*mC*mC*mG (mC*mA*mA*mG*mC*dC*dC*dC*dA*dG*dC*dG*dT*dT*dC*mC*mU*mC*mC*mG; antisense) [[LINC-PINT]83.1] | 45.20 |
| mC*mA*mC*mC*mC*T*T*C*T*C*T*C*T*G*G*mU*mC*mC*mC*mA (CACCCTTCTCTCTGGUCCCA; antisense; sugars from the 5' end m5 d10 m5, all phosphorothioate, methylation of C not given here) [[LINC-PINT]116] | 73.30 |
| mC*mA*mC*mU*mG*T*A*T*T*T*T*A*T*T*A*mC*mA*mG*mA*mA (mC*mA*mC*mU*mG*dT*dA*dT*dT*dT*dT*dA*dT*dT*dA*mC*mA*mG*mA*mA; antisense) [[LINC-PINT]2990] | 58.13 |
